Results on one compound are retold here after patent EP0024372A1, “Derivatives of clavulanic acid, their preparation and pharmaceutical compositions containing them” (BEECHAM GROUP PLC, priority 1979, dated 1981).

The structures appear in SMILES notation.

Holding throughout (experiment): standard MIC microtitre synergy test with ampicillin
Common to all, as to assay type: cell-based

For one assay, the system named is E.coli JT39. From the text: (§1) In a standard MIC microtitre synergy test with ampicillin the following results were obtained with the compound of Example 7.
Assay [1] relates to Staphylococcus aureus Russell. Conditions: one cell spanning Inhibitor Concentration 20, 5 and 1 μg/ml.
Source text: as §1

The test system of a further assay is Klebsiella aerogenes E70.
Source text: as §1

The next assay relates to Proteus mirabilis C889.
Source text: as §1

[2] abbreviates: Inhibitor Concentration 1 μg/ml.
The mark [3] stands for this setting: Inhibitor Concentration 5 μg/ml.
Where [4] appears, read: Inhibitor Concentration 20 μg/ml.

Regarding `O=C(O)[C@H]1/C(=C/Cc2ccccc2O)O[C@@H]2CC(=O)N21` [Example 7, Lithium 9-(2-hydroxyphenyl)deoxyclavulanate], the “MIC microtitre synergy test with ampicillin” value is on record as 125 in the assay with E.coli JT39 (setting [2]); 16 in the assay on E.coli JT39 (setting [3]); 2 in the assay with E.coli JT39 (setting [4]); “- Inhibition -” in assay [1]; 12.5 in the assay on Klebsiella aerogenes E70 (setting [2]); 6.25 in the assay on Klebsiella aerogenes E70 (setting [3]). Besides, the “MIC microtitre synergy test with ampicillin” value in the assay on Klebsiella aerogenes E70 (setting [4]) came out at 3.1; in the assay with Proteus mirabilis C889 (setting [2]), 16; with Proteus mirabilis C889 (setting [3]), 16; in the assay on Proteus mirabilis C889 (setting [4]), 8.
